IC50 data for 30 compounds are collected here from US9624182B2, “Compounds as lysophosphatidic acid receptor antagonists” (Amira Pharmaceuticals, Inc., priority 2009, dated 2017).

Structures are written as SMILES.

T1 sequence (Q92633 whole entry): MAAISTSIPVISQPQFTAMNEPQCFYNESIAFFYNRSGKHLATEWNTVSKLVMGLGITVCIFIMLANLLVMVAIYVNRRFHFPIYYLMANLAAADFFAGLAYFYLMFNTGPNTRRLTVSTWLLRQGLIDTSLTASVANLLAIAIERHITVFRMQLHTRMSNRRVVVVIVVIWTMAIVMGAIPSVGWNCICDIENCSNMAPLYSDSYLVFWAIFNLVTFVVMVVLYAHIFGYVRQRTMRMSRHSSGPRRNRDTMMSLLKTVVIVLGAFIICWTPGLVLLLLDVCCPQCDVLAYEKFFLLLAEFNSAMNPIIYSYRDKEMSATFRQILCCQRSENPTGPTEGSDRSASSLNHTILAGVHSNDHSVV

This test concerns the target T1, human LPA1 (Homo sapiens, UniProt Q92633).
T1 construct: the full-length cDNA for human LPA1 was obtained by PCR of the reverse transcription reaction; expressed in transfected cells
Nature of the test: LPA1 calcium flux assay. Particulars: CHO cells expressing human LPA1, stimulated with 10 nM LPA; read-out: HLPA1 Ca Flux IC50. It is filed as cell-based. Put shortly: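 CHO cells stably expressing cloned human LPA1, serum-starved overnight, loaded with Calcium 4 dye 1 h at 37 °C in HBSS/20 mM Hepes with 0.3% fatty-acid-free HSA. Compounds preincubated 30 min at room temperature, then cells stimulated with 10 nM LPA; intracellular Ca2+ read by fluorescence. IC50 from titration curves.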
In general terms: Calcium flux is commonly read through the fluorescence of an indicator in the cells.
The IC50 is the point on the concentration scale where inhibition reaches its midpoint. Regarding `Cc1noc(-c2ccc(-c3ccc(C4(C(=O)O)CC4)cc3)cc2)c1CCOCc1ccccn1` [Compound 1-75, 1-(4′-{3-Methyl-4-[2-(pyridin-2-ylmethoxy)-ethyl]-isoxazol-5-yl}-biphenyl-4-yl)-cyclopropanecarboxylic acid], the half-inhibitory concentration (IC50) lay within 1000 to 50000 nM. Regarding `Cc1noc(-c2ccc(-c3ccc([C@@H]4C[C@H]4C(=O)O)cc3)cc2)c1CSCCc1ccccc1` (relative stereo) [Compound 1-130, (trans)-2-[4′-(3-Methyl-4-phenethylsulfanylmethyl-isoxazol-5-yl)-biphenyl-4-yl]-cyclopropanecarboxylic acid], the IC50 lay in the range of 300 to 1000 nM. The value for `Cc1noc(-c2ccc(-c3ccc(C4(CC(=O)O)CC4)cc3)cc2)c1C(O)COCc1cccc(C(F)(F)F)c1` (stereo not drawn) [Compound 1-244, [1-(4′-{4-[1-Hydroxy-2-(3-trifluoromethyl-benzyloxy)-ethyl]-3-methyl-isoxazol-5-yl}-biphenyl-4-yl)-cyclopropyl]-acetic acid] was less than 300 nM; that for `Cc1noc(-c2ccc(-c3ccc(C4(C(=O)O)CC4)cc3)cc2)c1CC(=O)NC1Cc2ccccc2C1` [Compound 1-90, 1-{4′-[4-(Indan-2-ylcarbamoylmethyl)-3-methyl-isoxazol-5-yl]-biphenyl-4-yl}-cyclopropanecarboxylic acid] was less than 300 nM.

On to `Cc1noc(-c2ccc(-c3ccc(C4(C(=O)O)CC4)cc3)cc2)c1C=CC(C)Cc1ccc(C(C)C)cc1` (stereo not drawn) [Compound 1-111, 1-(4′-{4-[4-(4-Isopropyl-phenyl)-3-methyl-but-1-enyl]-3-methyl-isoxazol-5-yl}-biphenyl-4-yl)-cyclopropanecarboxylic acid], for which the IC50 lay in the range of 1000 to 50000 nM. The value for `Cc1noc(-c2ccc(-c3ccc(C4(C(=O)O)CC4)cc3)cc2)c1NC(=O)c1cccc(Br)c1` [Compound 1-292, 1-{4′-[4-(3-Bromo-benzoylamino)-3-methyl-isoxazol-5-yl]-biphenyl-4-yl}-cyclopropanecarboxylic acid] was 300 to 1000 nM; that for `Cc1noc(-c2ccc(-c3ccc(C4(C(=O)O)CC4)cc3)cc2)c1CNCC1CCCCC1` [Compound 1-28, 1-(4′-{4-[(Cyclohexylmethyl-amino)-methyl]-3-methyl-isoxazol-5-yl}-biphenyl-4-yl)-cyclopropanecarboxylic acid] was greater than 50000 nM; that for `Cc1noc(-c2ccc(-c3cccc(CC4(C(=O)O)CC4)c3)cc2)c1C(O)CCCc1ccccc1` (stereo not drawn) [Compound 1-251, 1-{4′-[4-(1-Hydroxy-4-phenyl-butyl)-3-methyl-isoxazol-5-yl]-biphenyl-3-ylmethyl}-cyclopropanecarboxylic acid] was 300 to 1000 nM. Turning to `Cc1noc(-c2ccc(-c3ccc(C4(C(=O)O)CC4)cc3)cc2)c1Nc1cccc(OC(C)C)n1` [Compound 1-297, 1-{4′-[4-(6-Isopropoxy-pyridin-2-ylamino)-3-methyl-isoxazol-5-yl]-biphenyl-4-yl}-cyclopropanecarboxylic acid], the IC50 is less than 300 nM. The value for `Cc1noc(-c2ccc(-c3ccc(C(Cc4ccccc4)C(=O)O)cc3)cc2)c1C(O)CCCc1ccccc1` (stereo not drawn) [Compound 1-188, 2-{4′-[4-(1-Hydroxy-4-phenyl-butyl)-3-methyl-isoxazol-5-yl]-biphenyl-4-yl}-3-phenyl-propionic acid] was less than 300 nM; that for `Cc1noc(-c2ccc(-c3ccc(C4(C(=O)O)CC4)cc3)cc2)c1NC(=O)N(C)C(C)C` [Compound 1-8, 1-{4′-[4-(3-Isopropyl-3-methyl-ureido)-3-methyl-isoxazol-5-yl]-biphenyl-4-yl}-cyclopropanecarboxylic acid] was 1000 to 50000 nM. The value for `Cc1noc(-c2ccc(-c3ccc(C4(C(=O)O)CC4)cc3)cc2)c1C(O)CSC(C)(C)C` (stereo not drawn) [Compound 1-275, 1-{4′-[4-(2-tert-Butylsulfanyl-1-hydroxy-ethyl)-3-methyl-isoxazol-5-yl]-biphenyl-4-yl}-cyclopropanecarboxylic acid] was less than 300 nM; that for `CC(=O)N(CCc1c(C)noc1-c1ccc(-c2ccc(C3(C(=O)O)CC3)cc2)cc1)Cc1ccccc1` [Compound 1-142, 1-(4′-{4-[2-(Acetyl-benzyl-amino)-ethyl]-3-methyl-isoxazol-5-yl}-biphenyl-4-yl)-cyclopropanecarboxylic acid] was 1000 to 50000 nM; that for `Cc1noc(-c2ccc(-c3ccc(C4(C(=O)O)CC4)cc3)cc2)c1CCC(=O)NC(C)(C)c1ccccc1` [Compound 1-106, 1-(4′-{3-Methyl-4-[2-(1-methyl-1-phenyl-ethylcarbamoyl)-ethyl]-isoxazol-5-yl}-biphenyl-4-yl)-cyclopropanecarboxylic acid] was 1000 to 50000 nM. The figure for `C=CCCC(C)Nc1c(C)noc1-c1ccc(-c2ccc(C3(C(=O)O)CC3)cc2)cc1` (stereo not drawn) [Compound 1-227, 1-{4′-[3-Methyl-4-(1-methyl-pent-4-enylamino)-isoxazol-5-yl]-biphenyl-4-yl}-cyclopropanecarboxylic acid] is less than 300 nM; for `Cc1noc(-c2ccc(-c3ccc(CC(=O)O)cc3)cc2)c1NC(C)CCc1cccc(Cl)c1` (stereo not drawn) [Compound 1-182, (4′-{4-[3-(3-Chloro-phenyl)-1-methyl-propylamino]-3-methyl-isoxazol-5-yl}-biphenyl-4-yl)-acetic acid] it is less than 300 nM. With `Cc1noc(-c2ccc(-c3ccc(C4(C(=O)O)CC4)cc3)cc2)c1CNC(=O)NCc1ccccc1` [Compound 1-59, 1-{4′-[4-(3-Benzyl-ureidomethyl)-3-methyl-isoxazol-5-yl]-biphenyl-4-yl}-cyclopropanecarboxylic acid], the IC50 was in the range of 1000 to 50000 nM. The value for `CC(C)=CCCC(C)Nc1c(C)noc1-c1ccc(-c2ccc(C3(C(=O)O)CC3)cc2)cc1` (stereo not drawn) [Compound 1-205, 1-{4′-[4-(1,5-Dimethyl-hex-4-enylamino)-3-methyl-isoxazol-5-yl]-biphenyl-4-yl}-cyclopropanecarboxylic acid] was less than 300 nM; that for `Cc1noc(-c2ccc(-c3ccc(C4(C(=O)O)CC4)cc3)cc2)c1CC(=O)NC(C)c1ccccc1` (stereo not drawn) [Compound 1-33, 1-(4′-{3-Methyl-4-[(1-phenyl-ethylcarbamoyl)-methyl]-isoxazol-5-yl}-biphenyl-4-yl)-cyclopropanecarboxylic acid] was less than 300 nM.

Take `Cc1noc(-c2ccc(-c3ccc(C4(C(=O)O)CC4)cc3)cc2)c1CCC(=O)N1CCCC1` [Compound 1-41, 1-{4′-[3-Methyl-4-(3-oxo-3-pyrrolidin-1-yl-propyl)-isoxazol-5-yl]-biphenyl-4-yl}-cyclopropanecarboxylic acid]: the IC50 lay within 1000 to 50000 nM. For `Cc1noc(-c2ccc(-c3ccc(C4(C(=O)O)CC4)cc3)cc2)c1Nc1cccnc1` [Compound 1-290, 1-{4′-[3-Methyl-4-(pyridin-3-ylamino)-isoxazol-5-yl]-biphenyl-4-yl}-cyclopropanecarboxylic acid], the IC50 lay in the range of 1000 to 50000 nM.

`Cc1noc(-c2ccc(-c3ccc(C4(C(=O)O)CC4)cc3)cc2)c1CC(=O)N[C@@H]1CCc2ccccc21` [Compound 1-65, 1-{4′-[4-(Indan-1-ylcarbamoylmethyl)-3-methyl-isoxazol-5-yl]-biphenyl-4-yl}-cyclopropanecarboxylic acid]: the concentration for half-maximal inhibition (IC50) was greater than 50000 nM. The figure for `Cc1cnn(Cc2c(C)noc2-c2ccc(-c3ccc(C4(C(=O)O)CC4)cc3)cc2)c1` [Compound 1-194, 1-{4′-[3-Methyl-4-(4-methyl-pyrazol-1-ylmethyl)-isoxazol-5-yl]-biphenyl-4-yl}-cyclopropanecarboxylic acid] is 1000 to 50000 nM; for `Cc1noc(-c2ccc(-c3ccc(C4(C(=O)O)CC4)cc3)cc2)c1Nc1ncnc2scc(C)c12` [Compound 1-212, 1-{4′-[3-Methyl-4-(5-methyl-thieno[2,3-d]pyrimidin-4-ylamino)-isoxazol-5-yl]-biphenyl-4-yl}-cyclopropanecarboxylic acid] it is 1000 to 50000 nM. The value for `Cc1noc(-c2ccc(-c3ccc(C4(C(=O)O)CC4)cc3)cc2)c1NC(=O)NCc1ccccc1` [Compound 1-6, 1-{4′-[4-(3-Benzyl-ureido)-3-methyl-isoxazol-5-yl]-biphenyl-4-yl}-cyclopropanecarboxylic acid] was less than 300 nM; that for `Cc1noc(-c2ccc(-c3ccc(C4(C(=O)O)CC4)cc3)cc2)c1Cn1cc(Br)cn1` [Compound 1-196, 1-{4′-[4-(4-Bromo-pyrazol-1-ylmethyl)-3-methyl-isoxazol-5-yl]-biphenyl-4-yl}-cyclopropanecarboxylic acid] was 1000 to 50000 nM; that for `Cc1noc(-c2ccc(-c3ccc(C4(C(=O)O)CC4)cc3)cc2)c1C(=O)CCc1cccc(C(F)(F)F)c1` [Compound 1-160, 1-(4′-{3-Methyl-4-[3-(3-trifluoromethyl-phenyl)-propionyl]-isoxazol-5-yl}-biphenyl-4-yl)-cyclopropanecarboxylic acid] was 1000 to 50000 nM. For `Cc1noc(-c2ccc(-c3ccc(C4(C(=O)O)CC4)cc3)cc2)c1/C=C/[S+]([O-])Cc1ccccc1` (single isomer, unassigned) [Compound 1-262, 1-(4′-{3-Methyl-4-[(E)-2-(phenylmethanesulfinyl)-vinyl]-isoxazol-5-yl}-biphenyl-4-yl)-cyclopropanecarboxylic acid], the IC50 was less than 300 nM. The value for `Cc1noc(-c2ccc(-c3ccc(C4(C(=O)O)CC4)cc3)cc2)c1C(O)COCc1ccccc1` (single isomer, unassigned) [Compound 1-199, 1-{4′-[4-(2-Benzyloxy-1-hydroxy-ethyl)-3-methyl-isoxazol-5-yl]-biphenyl-4-yl}-cyclopropanecarboxylic acid] was less than 300 nM. The value for `COC(CCCc1ccccc1)c1c(C)noc1-c1ccc(-c2ccc(C3(C(=O)O)CC3)cc2)cc1` (stereo not drawn) [Compound 1-148, 1-{4′-[4-(1-Methoxy-4-phenyl-butyl)-3-methyl-isoxazol-5-yl]-biphenyl-4-yl}-cyclopropanecarboxylic acid] was less than 300 nM.
